The target in assay [1] is T1, Histone deacetylase 7 (Homo sapiens) (UniProt Q8WUI4).
T1 sequence (whole entry): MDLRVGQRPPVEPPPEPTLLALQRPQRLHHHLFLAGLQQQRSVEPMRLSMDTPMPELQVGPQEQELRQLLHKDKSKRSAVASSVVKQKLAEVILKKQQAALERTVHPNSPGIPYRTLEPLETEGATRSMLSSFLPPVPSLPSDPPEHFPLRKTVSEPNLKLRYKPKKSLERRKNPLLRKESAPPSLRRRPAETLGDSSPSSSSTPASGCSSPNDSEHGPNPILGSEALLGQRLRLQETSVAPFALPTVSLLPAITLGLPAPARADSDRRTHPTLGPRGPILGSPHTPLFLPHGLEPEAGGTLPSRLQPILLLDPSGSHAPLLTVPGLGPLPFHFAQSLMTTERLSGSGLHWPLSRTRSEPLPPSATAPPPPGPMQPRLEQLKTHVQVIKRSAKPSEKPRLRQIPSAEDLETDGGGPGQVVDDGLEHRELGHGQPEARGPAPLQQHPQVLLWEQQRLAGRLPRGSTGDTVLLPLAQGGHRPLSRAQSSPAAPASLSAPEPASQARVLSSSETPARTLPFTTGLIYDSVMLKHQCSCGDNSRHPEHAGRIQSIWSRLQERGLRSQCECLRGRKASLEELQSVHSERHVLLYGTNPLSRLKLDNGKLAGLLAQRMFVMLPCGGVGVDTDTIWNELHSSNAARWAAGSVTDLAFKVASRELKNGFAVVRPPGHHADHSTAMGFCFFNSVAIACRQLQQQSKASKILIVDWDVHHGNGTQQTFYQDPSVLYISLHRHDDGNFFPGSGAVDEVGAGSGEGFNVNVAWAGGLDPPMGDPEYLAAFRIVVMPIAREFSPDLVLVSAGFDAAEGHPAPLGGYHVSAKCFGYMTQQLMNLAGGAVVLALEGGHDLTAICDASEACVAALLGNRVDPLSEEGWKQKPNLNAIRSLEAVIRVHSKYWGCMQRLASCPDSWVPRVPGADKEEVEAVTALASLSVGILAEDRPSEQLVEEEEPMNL
The assay is described as follows: Inhibition of HDAC7 (unknown origin) at 20 uM.

A further assay has as its target T2, Histone deacetylase 8 (Homo sapiens, UniProt Q9BY41).
T2 sequence (Q9BY41 whole entry): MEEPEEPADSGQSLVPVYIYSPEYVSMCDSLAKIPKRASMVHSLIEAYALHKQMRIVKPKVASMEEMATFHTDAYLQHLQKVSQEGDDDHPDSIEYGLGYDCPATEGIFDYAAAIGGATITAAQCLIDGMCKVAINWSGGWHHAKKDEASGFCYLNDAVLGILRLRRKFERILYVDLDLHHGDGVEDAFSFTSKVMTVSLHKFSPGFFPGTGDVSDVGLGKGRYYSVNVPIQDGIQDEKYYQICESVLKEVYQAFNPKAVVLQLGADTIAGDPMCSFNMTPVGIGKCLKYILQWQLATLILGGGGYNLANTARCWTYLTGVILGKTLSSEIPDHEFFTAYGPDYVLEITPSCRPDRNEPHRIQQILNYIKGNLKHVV
Nature of the assay: Inhibition of HDAC8 (unknown origin).

Assay [2] deals with Histone deacetylase 4 (Homo sapiens) (UniProt P56524). Nature of the assay: Inhibition of HDAC4 (unknown origin) at 20 uM.
Sequence of Histone deacetylase 4 (Homo sapiens) (P56524 whole entry): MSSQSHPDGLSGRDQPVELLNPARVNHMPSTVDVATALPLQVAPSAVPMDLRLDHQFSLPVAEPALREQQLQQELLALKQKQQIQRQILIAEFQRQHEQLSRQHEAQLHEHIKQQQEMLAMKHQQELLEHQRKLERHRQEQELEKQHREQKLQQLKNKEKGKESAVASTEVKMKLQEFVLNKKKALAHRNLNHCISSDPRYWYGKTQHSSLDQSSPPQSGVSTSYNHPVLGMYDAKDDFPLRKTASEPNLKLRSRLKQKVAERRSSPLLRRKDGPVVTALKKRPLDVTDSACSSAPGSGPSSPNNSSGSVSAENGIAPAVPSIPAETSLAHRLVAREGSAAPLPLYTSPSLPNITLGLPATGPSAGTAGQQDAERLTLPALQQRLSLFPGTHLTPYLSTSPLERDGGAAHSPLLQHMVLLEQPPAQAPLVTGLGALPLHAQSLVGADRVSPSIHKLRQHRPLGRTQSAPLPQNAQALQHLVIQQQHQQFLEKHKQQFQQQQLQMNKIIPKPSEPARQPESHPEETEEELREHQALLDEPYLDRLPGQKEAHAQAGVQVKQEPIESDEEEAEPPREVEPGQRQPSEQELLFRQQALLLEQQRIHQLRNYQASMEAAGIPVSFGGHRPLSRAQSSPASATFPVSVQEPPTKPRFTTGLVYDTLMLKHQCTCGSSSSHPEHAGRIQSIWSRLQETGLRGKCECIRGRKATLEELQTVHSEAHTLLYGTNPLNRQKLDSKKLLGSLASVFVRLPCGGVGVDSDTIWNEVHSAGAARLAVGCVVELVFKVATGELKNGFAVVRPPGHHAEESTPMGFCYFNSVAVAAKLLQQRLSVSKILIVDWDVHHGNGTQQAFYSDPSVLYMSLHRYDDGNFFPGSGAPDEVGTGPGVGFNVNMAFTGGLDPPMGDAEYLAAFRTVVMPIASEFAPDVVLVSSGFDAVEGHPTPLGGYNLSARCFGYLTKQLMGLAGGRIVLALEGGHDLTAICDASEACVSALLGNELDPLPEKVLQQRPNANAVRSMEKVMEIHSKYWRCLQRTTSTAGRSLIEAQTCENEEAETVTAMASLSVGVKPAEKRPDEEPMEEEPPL
Assay [3] deals with T3, Protein deacetylase HDAC6 (Homo sapiens, UniProt Q9UBN7).
T3 sequence (Q9UBN7 whole entry): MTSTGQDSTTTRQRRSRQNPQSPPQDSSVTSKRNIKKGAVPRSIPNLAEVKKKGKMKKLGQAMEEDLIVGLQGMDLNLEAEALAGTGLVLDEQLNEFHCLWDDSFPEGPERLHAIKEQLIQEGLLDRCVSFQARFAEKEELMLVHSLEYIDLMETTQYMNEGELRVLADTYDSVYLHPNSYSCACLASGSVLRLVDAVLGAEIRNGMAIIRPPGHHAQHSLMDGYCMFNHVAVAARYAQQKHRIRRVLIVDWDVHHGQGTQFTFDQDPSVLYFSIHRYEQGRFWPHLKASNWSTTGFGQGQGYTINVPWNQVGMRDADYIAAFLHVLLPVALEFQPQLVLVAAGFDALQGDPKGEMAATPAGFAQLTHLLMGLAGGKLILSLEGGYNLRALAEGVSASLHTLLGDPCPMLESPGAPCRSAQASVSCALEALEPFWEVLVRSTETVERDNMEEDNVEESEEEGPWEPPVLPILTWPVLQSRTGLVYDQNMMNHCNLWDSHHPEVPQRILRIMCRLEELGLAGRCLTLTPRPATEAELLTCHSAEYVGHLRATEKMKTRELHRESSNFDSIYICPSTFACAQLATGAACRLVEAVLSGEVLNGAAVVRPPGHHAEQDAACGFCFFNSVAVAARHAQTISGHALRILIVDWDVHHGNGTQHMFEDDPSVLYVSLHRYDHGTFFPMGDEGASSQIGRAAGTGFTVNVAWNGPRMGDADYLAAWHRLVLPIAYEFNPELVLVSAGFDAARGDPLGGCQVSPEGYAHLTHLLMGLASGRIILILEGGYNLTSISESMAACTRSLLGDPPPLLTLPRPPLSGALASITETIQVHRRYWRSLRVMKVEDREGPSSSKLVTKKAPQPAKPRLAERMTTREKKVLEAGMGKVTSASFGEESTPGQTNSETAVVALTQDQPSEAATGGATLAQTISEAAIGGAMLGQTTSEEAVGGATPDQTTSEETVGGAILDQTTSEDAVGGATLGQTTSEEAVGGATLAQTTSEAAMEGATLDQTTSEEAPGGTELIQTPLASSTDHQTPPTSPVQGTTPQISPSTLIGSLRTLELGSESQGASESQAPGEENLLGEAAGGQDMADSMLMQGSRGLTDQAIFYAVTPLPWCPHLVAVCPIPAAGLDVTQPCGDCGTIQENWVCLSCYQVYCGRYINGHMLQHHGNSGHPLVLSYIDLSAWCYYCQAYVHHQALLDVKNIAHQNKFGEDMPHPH
Nature of the assay: Inhibition of HDAC6 (unknown origin).

The target in assay [4] is Histone deacetylase 5 (Homo sapiens) (UniProt Q9UQL6). The assay is described as follows: Inhibition of HDAC5 (unknown origin) at 20 uM.
Sequence of Histone deacetylase 5 (Homo sapiens) (Q9UQL6 whole entry): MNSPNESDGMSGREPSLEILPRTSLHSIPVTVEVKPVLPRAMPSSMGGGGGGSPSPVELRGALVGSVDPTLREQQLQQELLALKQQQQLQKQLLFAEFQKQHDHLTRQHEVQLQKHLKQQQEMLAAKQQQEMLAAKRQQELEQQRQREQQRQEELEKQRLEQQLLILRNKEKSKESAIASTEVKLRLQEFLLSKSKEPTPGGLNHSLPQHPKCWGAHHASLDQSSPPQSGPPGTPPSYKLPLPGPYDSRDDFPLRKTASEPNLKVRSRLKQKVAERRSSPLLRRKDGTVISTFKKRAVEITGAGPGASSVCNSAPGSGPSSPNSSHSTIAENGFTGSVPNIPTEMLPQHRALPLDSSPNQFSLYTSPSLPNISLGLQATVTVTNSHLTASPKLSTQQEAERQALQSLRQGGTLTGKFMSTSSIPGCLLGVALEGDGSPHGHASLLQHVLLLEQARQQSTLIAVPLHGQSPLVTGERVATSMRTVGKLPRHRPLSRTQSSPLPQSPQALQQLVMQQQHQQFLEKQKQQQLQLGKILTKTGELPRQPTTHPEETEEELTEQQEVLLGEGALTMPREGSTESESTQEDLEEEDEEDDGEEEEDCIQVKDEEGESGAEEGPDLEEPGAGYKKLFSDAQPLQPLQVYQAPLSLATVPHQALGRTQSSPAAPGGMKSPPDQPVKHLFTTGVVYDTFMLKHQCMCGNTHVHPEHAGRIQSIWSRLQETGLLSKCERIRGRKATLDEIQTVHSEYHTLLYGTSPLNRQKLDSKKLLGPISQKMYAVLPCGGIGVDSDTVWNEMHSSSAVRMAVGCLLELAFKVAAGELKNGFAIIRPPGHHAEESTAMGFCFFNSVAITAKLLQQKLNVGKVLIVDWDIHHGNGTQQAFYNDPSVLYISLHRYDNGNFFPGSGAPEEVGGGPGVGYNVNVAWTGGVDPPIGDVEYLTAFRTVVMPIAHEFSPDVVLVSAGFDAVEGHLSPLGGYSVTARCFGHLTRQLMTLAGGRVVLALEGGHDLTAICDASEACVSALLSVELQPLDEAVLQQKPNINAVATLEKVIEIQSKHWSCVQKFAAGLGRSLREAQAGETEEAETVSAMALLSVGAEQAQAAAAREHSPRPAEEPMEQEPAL

Active and inactive are the calls of the source. No cut-off for these calls is given here.

Regarding `NC(=O)C1CCCc2c(-c3ccc(Cl)c(Cl)c3)n[nH]c21` (racemic), the inhibition result in assay [1], in assay [2] and in assay [4] was “inactive” in each case. For the same molecule, the half-maximal inhibitory concentration (IC50) (against Histone deacetylase 8; in assay [3]) was above 10 µM in each case.
